Reference: patent US11427596B2, “Metal-free solvent-free synthesis of fused-pyrido heterocycles and biomedical applications” (Indian Institute of Technology Indore, priority 2019, dated 2022)
Where “and” joins values, the source holds several entries; their conditions need not be identical. Identical values can stand only once.

What was measured:
HeLa = assay: Crystal violet cytotoxicity assay, HeLa; type: cell-based; settings: Homo sapiens, 48 h incubation, triplicate
Method: (§1) FIG. 16 illustrates dose vs response curves of carbolines 18ac, 18bc, 18da and 18fa in HeLa, MCF-7, HEK293, A431 and A549 cell lines for 48 h incubation. IC50 values were determined by standard crystal violet assay in triplicate, according to the embodiments as disclosed herein. In vitro studies: The cytotoxicity of novel carboline derivatives 18ac, 18bc, 18da and 18fa were tested through standard crystal violet assay on human malignant cell lines such as HeLa, MCF-7, HEK293, A431 and A549. Cells were plated in a 96 well plate (1800 cells per well) and incubated for 48 h at 37° C. under 5% CO2. At 50% confluency, cells were incubated with a series of concentrations (0.1 μM, 0.25 μM, 0.5 μM, 1 μM, 2.5 μM, 5 μM, 10 μM, 25 μM, 50 μM and 100 μM) of the carbolines 18ac, 18bc, 18da and 18fa, respectively, for 48 h.
(§2) Procedure for cytotoxicity assay of carbolines in cancer cell lines: For this purpose, carbolines 18ac, 18bc, 18da and 18fa were subjected to a standard cell viability study (Crystal Violet assay) for examining anticancer activity against various human cancer cell lines such as HeLa, MCF-7, HEK293, A431 and A549. Crystal Violet is a triarylmethane dye which stains adhered cells by binding to the […]. The amount of Crystal Violet stain in the assay is directly proportional to the live cell biomass adhered on the plate after repeated washing. The above human cancer cell lines were plated in a 96-well tissue culture plate (1800 cells/well,) and incubated for 48 h in RPMI 1640 medium (volume≥100 μL/well), supplemented with 10% heat inactivated fetal bovine serum (HIFBS) and 1% Penicillin-Streptomycin antibiotic at 37° C., 5% CO2. Once the monolayer achieved 50% confluency/well, spent medium was aspirated and replaced with fresh medium≥100 μL/well, supplemented with increasing concentrations of carbolines 18ac, 18bc, 18da and 18fa (0.1 μM, 0.25 μM, 0.5 μM, 1 μM, 2.5 μM, 5 μM, 10 μM, 25 μM, 50 μM and 100 μM), respectively, and incubated for 48 h, at 37° C., 5% CO2. For positive control, 40% DMSO in culture medium was added to three wells and incubated under identical conditions. […] Finally, optical density of each well was measured at 570 nm (OD570) using Synergy H1 multimode plate reader (BioTek Instruments, Inc., Winooski, Vt., USA). The average background OD570 of empty wells was measured and subtracted from OD570/well on the plate. The percentage of treated, viable cells (attached) was determined and a dose vs response curve was plotted as semi-log[conc] vs percentage of normalized cell viability using GraphPad Prism v. […] The half maximal inhibitory concentration (IC50) was calculated and shown in Table 3 for carbolines 18ac, 18bc, 18da and 18fa against various human cancer cell lines (FIG. 16).

MCF-7 = assay: Crystal violet cytotoxicity assay, MCF-7; type: cell-based; settings: Homo sapiens, MCF7, 48 h incubation, triplicate
Method: as §1, §2

HEK293 = assay: Crystal violet cytotoxicity assay, HEK293; type: cell-based; settings: Homo sapiens, 48 h incubation, triplicate
Method: as §1, §2

A431 = assay: Crystal violet cytotoxicity assay, A431; type: cell-based; settings: Homo sapiens, A-431, 48 h incubation, triplicate
Method: as §1, §2

A549 = assay: Crystal violet cytotoxicity assay, A549; type: cell-based; settings: Homo sapiens, 48 h incubation, triplicate
Method: as §1, §2

HeLa cells = assay: Live-cell confocal imaging of cell uptake; type: cell-based, human; settings: 3 h incubation, confocal microscopy
Method: FIG. b 17 illustrates confocal microscopic studies (λex=405 nm; collection range=420-470 nm) for uptake of 18ac in HeLa cells, according to the embodiments as disclosed herein. • a) Confocal fluorescent image of HeLa cells after 3 h incubation with 10 μM concentration of 18ac (20× magnification, 2× zoom); • b) DIC image of HeLa cells • c) Overlay of (a) and (b) • d) Confocal image of HeLa cells after 3 h incubation with 100 nM concentration of 18ac (20× magnification, 2× zoom) • e) DIC image of HeLa cells • f) Overlay of (d) and (e).
To further evaluate cell uptake of the novel carbolines, live-cell imaging experiment was performed. HeLa cells were plated in a 4-well confocal dish (cell count=10^4 cells per well) and incubated for 48 h at 37° C. under 5% CO2. After 3 h of incubation with 18ac (10 nM, 100 nM, 1 μM, 10 μM, and 100 μM), cellular uptake and distribution were monitored by using confocal microscopy (λex=405 nm; collection range=420-470 nm).

[1] = Stability in polar solvent (HRMS footnote); type: physicochemical; settings: HRMS recording
Mycobacterium smegmatis = assay: In vitro Mycobacterium strains killing assay, M. smegmatis; type: cell-based

For COC(=O)c1cc2c(c(-c3cc4ccccc4n3C)n1)c1ccccc1n2C, the melting point was 210 to 212 °C.

Compound CCOC(=O)c1cc2c(c(-c3cc4ccccc4n3C)n1)c1ccccc1n2C has a melting point of 175 to 177 °C.

COC(=O)c1cc2c(c(-c3cc4ccccc4n3Cc3ccccc3)n1)c1ccccc1n2Cc1ccccc1 gave a melting point of 168 to 170 °C.

Work on COC(=O)c1cc2c(c(-c3cc4cc(OC)ccc4n3C)n1)c1cc(OC)ccc1n2C yielded a melting point of 160 to 162 °C.

Work on COC(=O)c1cc2occc2c(-c2ccco2)n1 yielded a melting point of 95 to 97 °C.

For CC(C)(C)OC(=O)c1cc2occc2c(-c2ccco2)n1, the melting point was 78 to 80 °C.

With COC(=O)c1cc2oc3ccccc3c2c(-c2cc3ccccc3o2)n1 the melting point was 163 to 165 °C.

Compound CCOC(=O)c1cc2oc3ccccc3c2c(-c2cc3ccccc3o2)n1 has a melting point of 141 to 143 °C.

Work on CC(C)(C)OC(=O)c1cc2oc3ccccc3c2c(-c2cc3ccccc3o2)n1 yielded a melting point of 100 to 102 °C.

With COC(=O)c1cc2c(ccn2Cc2ccccc2)c(-c2cccn2Cc2ccccc2)n1 the melting point was 134 to 136 °C.

COC(=O)c1cc2c(ccn2S(=O)(=O)c2ccc(C)cc2)c(-c2cccn2S(=O)(=O)c2ccc(C)cc2)n1 gave a melting point of 120 to 122 °C.

With COC(=O)c1cc2c(ccn2S(=O)(=O)c2ccccc2)c(-c2cccn2S(=O)(=O)c2ccccc2)n1 the melting point was 104 to 106 °C.

Compound Cn1c(-c2nc(C(=O)OC(C)(C)C)cc3c2c2ccccc2n3C)cc2ccccc21 [18ac, Tert-butyl 5-methyl-1-(1-methyl-1H-indol-2-yl)-5H-pyrido[4,3-b]indole-3-carboxylate] has an IC50 (HeLa) of 4.89 µM, an IC50 (MCF-7) of 5.59 µM and an IC50 (HEK293) of 2.29 µM. The IC50 (A431) was 4.89 µM, the IC50 (A549) was 4.62 µM and the cellular uptake (HeLa cells; 100 nM concentration) was “nominal uptake”. The cellular uptake (HeLa cells; 10 μM concentration) was “Decent cytosolic uptake” and the melting point was 200 to 202 °C.

CC(C)(C)OC(=O)c1cc2c(c(-c3cc4ccccc4n3Cc3ccccc3)n1)c1ccccc1n2Cc1ccccc1 [18bc, Tert-butyl 5-benzyl-1-(1-benzyl-1H-indol-2-yl)-5H-pyrido[4,3-b]indole-3-carboxylate] showed an IC50 (HeLa) of 8.15 µM, an IC50 (MCF-7) of 7.07 µM and an IC50 (HEK293) of 7.14 µM. For the same compound, the IC50 (A431) was 9.18 µM, the IC50 (A549) was 5.47 µM and the melting point was 148 to 150 °C.

In the case of COC(=O)c1cc2c(c(-c3cc4ccccc4n3Cc3ccc(OC)cc3)n1)c1ccccc1n2Cc1ccc(OC)cc1 [18da, Methyl 5-(4-methoxybenzyl)-1-(1-(4-methoxybenzyl)-1H-indol-2-yl)-5H-pyrido[4,3-b]indole-3-carboxylate], the IC50 (HeLa) is reported as 1.3 µM, the IC50 (MCF-7) is reported as 2.99 µM and the IC50 (HEK293) is reported as 6.73 µM. For the same compound, the IC50 (A431) was 4.47 µM, the IC50 (A549) was 5.17 µM and the melting point was 106 to 108 °C.

In the case of COC(=O)C1=Cc2c(c3ccccc3n2S(=O)(=O)c2ccc(C)cc2)C(c2cc3ccccc3n2S(=O)(=O)c2ccc(C)cc2)N1 (stereo not shown) [18fa, Methyl 5-tosyl-1-(1-tosyl-1H-indol-2-yl)-2,5-dihydro-1H-pyrido[4,3-b]indole-3-carboxylate], the IC50 (HeLa) is reported as 1.07 µM, the IC50 (MCF-7) is reported as 3.71 µM and the IC50 (HEK293) is reported as 4.98 µM. For the same compound, the IC50 (A431) was 3.58 µM, the IC50 (A549) was 4.98 µM and the melting point was 205 to 207 °C.

With NC(=O)c1cc2c(ccn2Cc2ccccc2)c(-c2cccn2Cc2ccccc2)n1 [compound 11, 1-Benzyl-4-(1-benzyl-1H-pyrrol-2-yl)-1H-pyrrolo[3,2-c]pyridine-6-carboxamide] the “stability in polar solvent” value [1] was “unstable in polar solvent”.

In the case of Cc1ccc(-c2nc(COCc3cn(CCN4C(=O)C(=O)c5ccccc54)nn3)cc3oc(C)cc23)o1 [compound 26, 1-(2-(4-(((2-Methyl-4-(5-methylfuran-2-yl)furo[3,2-c]pyridin-6-yl)methoxy)methyl)-1H-1,2,3-triazol-1-yl)ethyl)indoline-2,3-dione], the “concentration range in which active (antituberculosis activity)” value (Mycobacterium smegmatis) is reported as 70 to 100 µM and 50 to 100 µM.
